A word on the EC50: it is the concentration that produces a half-maximal response. For orientation: IC50 means the concentration needed to halve the response being measured. Read a high IC50 as a need for much substance.

From ChEMBL document CHEMBL4265945, “Synthesis, biological evaluation and structure-activity relationship of a novel class of PI3Kα H1047R mutant inhibitors” (Eur J Med Chem, 2018) come the findings set out here.

Test [1] has as its target Phosphatidylinositol 4,5-bisphosphate 3-kinase catalytic subunit alpha isoform (Homo sapiens, UniProt P42336, H1047R). Description: Inhibition of PI3Kalpha H1047R mutant (unknown origin) by HTRF assay.
In test [2] the test system is HCT-116. To be noted: Homo sapiens, HCT-116, 72 h.
The test system of test [3] is MCF7. As to the kind of experiment: cells. The settings on record: Homo sapiens, MCF7, 72 h.
Description: Antiproliferative activity against human MCF7 cells after 72 hrs by CCK-8 assay
Test [4] deals with Phosphatidylinositol 4,5-bisphosphate 3-kinase catalytic subunit beta isoform (Homo sapiens, UniProt P42338). Description: Inhibition of PI3Kbeta (unknown origin) after 40 mins by kinase-Glo reagent based luminescence assay. In general terms: Kinase-Glo reads ATP consumption through a luciferase reaction.
Chain of Phosphatidylinositol 4,5-bisphosphate 3-kinase catalytic subunit beta isoform (P42338 whole entry, canonical isoform): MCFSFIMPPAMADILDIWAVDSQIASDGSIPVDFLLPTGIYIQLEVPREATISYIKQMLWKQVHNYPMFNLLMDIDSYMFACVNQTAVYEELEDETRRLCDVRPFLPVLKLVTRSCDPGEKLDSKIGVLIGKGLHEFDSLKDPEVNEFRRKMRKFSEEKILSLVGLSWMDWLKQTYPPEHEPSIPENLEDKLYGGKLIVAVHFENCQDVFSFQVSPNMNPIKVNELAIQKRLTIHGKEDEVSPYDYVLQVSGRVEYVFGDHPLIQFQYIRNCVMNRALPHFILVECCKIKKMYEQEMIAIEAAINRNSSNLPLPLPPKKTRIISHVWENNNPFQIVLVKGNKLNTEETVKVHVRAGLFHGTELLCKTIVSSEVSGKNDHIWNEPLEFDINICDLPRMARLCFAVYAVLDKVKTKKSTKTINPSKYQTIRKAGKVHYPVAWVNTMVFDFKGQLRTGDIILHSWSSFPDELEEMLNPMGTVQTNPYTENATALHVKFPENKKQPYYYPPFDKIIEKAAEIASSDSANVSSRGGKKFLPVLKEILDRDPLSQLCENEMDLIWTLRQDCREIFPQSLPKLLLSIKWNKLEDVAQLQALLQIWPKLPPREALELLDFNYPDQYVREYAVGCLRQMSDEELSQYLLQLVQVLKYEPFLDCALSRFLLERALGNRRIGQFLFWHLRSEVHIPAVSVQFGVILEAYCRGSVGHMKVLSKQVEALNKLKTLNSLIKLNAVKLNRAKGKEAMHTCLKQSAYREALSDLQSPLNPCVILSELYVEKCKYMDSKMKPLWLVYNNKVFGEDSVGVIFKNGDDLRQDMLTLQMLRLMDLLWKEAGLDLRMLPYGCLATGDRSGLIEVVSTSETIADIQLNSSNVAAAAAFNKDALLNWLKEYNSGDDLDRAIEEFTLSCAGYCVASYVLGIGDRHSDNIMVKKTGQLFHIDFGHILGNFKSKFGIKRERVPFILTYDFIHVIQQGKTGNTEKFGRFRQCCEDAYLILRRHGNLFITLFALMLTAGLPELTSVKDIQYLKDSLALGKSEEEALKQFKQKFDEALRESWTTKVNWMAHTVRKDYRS
Test [5] deals with Phosphatidylinositol 4,5-bisphosphate 3-kinase catalytic subunit gamma isoform (Homo sapiens, UniProt P48736). Description: Inhibition of PI3Kgamma (unknown origin) after 40 mins by kinase-Glo reagent based luminescence assay.
Chain of Phosphatidylinositol 4,5-bisphosphate 3-kinase catalytic subunit gamma isoform (P48736 whole entry, canonical isoform): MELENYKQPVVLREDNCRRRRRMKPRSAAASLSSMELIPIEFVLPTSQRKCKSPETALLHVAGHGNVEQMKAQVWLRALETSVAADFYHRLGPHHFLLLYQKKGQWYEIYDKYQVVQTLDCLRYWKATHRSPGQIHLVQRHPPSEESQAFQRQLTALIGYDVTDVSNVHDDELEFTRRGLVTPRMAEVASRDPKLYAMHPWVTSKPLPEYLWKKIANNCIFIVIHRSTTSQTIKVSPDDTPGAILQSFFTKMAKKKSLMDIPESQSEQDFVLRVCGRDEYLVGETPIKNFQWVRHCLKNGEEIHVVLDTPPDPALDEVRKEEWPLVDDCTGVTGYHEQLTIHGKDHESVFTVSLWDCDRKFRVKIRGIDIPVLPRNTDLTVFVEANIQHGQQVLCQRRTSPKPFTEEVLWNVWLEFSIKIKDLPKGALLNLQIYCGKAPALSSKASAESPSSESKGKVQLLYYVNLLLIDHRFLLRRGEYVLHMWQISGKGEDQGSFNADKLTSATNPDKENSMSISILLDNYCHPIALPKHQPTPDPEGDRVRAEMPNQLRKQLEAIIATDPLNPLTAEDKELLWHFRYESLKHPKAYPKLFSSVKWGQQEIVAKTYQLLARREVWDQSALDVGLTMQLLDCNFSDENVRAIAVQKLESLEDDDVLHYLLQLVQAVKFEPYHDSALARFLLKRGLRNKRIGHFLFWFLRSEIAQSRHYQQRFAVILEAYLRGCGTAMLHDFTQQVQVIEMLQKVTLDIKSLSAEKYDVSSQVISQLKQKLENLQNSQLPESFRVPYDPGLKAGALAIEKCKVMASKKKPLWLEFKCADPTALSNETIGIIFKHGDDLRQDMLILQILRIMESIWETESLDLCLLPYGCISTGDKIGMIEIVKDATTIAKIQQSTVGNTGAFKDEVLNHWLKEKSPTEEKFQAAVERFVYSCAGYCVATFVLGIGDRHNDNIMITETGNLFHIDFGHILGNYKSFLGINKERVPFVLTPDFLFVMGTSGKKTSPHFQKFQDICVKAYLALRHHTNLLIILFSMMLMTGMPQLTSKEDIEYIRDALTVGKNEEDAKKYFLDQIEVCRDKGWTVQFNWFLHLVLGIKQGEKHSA
Test [6] concerns the target T1, Phosphatidylinositol 4,5-bisphosphate 3-kinase catalytic subunit delta isoform (Homo sapiens, UniProt O00329).
T1 sequence (O00329 whole entry): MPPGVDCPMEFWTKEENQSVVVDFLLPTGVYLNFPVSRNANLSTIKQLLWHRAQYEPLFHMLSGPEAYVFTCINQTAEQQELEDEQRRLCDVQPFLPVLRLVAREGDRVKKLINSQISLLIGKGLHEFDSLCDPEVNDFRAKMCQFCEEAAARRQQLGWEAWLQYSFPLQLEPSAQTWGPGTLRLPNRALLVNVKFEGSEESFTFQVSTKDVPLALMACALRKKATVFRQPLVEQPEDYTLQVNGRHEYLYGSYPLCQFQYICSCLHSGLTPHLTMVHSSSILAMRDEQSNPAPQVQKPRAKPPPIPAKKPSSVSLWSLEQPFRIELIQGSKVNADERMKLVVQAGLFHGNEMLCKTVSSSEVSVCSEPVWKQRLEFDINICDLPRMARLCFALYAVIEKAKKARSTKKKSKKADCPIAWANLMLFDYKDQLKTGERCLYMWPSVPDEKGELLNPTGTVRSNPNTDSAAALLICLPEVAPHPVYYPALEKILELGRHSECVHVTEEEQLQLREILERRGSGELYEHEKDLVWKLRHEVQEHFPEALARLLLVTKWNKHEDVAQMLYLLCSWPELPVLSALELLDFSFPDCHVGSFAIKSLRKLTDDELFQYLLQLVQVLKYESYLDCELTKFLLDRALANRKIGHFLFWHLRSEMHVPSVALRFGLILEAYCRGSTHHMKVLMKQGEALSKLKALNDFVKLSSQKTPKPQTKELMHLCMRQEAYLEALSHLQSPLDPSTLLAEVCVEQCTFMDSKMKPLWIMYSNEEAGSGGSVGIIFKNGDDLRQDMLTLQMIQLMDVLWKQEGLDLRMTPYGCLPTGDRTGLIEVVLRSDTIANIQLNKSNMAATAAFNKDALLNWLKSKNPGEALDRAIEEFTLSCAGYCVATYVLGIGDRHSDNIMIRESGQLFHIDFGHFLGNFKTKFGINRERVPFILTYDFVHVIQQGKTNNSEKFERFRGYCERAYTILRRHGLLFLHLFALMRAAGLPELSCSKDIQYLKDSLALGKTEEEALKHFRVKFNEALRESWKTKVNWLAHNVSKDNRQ
Description: Inhibition of PI3Kdelta (unknown origin) after 40 mins by kinase-Glo reagent based luminescence assay.

Test [7] can be described thus: Inhibition of mTORC1 (unknown origin) after 40 mins by kinase-Glo reagent based luminescence assay. The arrangement: species or system Homo sapiens.
The target in test [8] is Phosphatidylinositol 4,5-bisphosphate 3-kinase catalytic subunit alpha isoform (Homo sapiens, UniProt P42336). As to the kind of experiment: Inhibition of wild type PI3Kalpha (unknown origin) after 40 mins by kinase-Glo reagent based luminescence assay.
Chain of Phosphatidylinositol 4,5-bisphosphate 3-kinase catalytic subunit alpha isoform (Homo sapiens, UniProt P42336) (P42336 whole entry, canonical isoform): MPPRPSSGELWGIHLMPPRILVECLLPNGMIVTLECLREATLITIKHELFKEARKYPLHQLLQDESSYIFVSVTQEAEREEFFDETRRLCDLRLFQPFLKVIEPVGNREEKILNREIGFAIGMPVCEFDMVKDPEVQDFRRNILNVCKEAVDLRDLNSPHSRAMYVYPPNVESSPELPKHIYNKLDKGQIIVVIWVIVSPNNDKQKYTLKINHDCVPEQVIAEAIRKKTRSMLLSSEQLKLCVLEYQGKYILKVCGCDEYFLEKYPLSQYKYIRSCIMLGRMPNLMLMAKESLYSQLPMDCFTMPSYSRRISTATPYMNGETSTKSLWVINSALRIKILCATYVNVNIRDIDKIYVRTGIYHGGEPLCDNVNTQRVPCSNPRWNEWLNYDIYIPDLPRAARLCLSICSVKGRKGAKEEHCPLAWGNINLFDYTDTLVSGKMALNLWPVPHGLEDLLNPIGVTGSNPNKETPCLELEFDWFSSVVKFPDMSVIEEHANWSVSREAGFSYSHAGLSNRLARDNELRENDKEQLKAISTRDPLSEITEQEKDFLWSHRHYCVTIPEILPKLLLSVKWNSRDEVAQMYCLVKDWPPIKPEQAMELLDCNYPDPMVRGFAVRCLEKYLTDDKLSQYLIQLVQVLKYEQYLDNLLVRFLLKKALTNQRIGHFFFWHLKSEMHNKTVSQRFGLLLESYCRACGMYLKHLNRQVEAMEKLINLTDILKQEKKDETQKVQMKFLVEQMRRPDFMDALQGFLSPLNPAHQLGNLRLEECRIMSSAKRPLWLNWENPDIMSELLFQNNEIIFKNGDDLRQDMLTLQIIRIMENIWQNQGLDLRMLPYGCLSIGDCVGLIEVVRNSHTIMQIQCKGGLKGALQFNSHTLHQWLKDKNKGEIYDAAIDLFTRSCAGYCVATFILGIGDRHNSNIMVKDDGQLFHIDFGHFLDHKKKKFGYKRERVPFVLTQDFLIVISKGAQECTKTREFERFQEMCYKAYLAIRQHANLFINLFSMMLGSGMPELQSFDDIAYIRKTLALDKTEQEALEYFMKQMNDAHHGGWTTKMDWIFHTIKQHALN
Test [9] deals with HCT-116. As to the kind of experiment: Induction of apoptosis in human HCT116 cells assessed as early apoptotic cells at 5 uM after 24 hrs by Annexin V-FITC/PI staining based flow cytometry (reference value: 4.07%). It counts as functional. For orientation: In flow cytometry, cells or beads pass a laser one at a time.
For test [10], the system named is HCT-116. As to the kind of experiment: Induction of apoptosis in human HCT116 cells assessed as late apoptotic cells at 5 uM after 24 hrs by Annexin V-FITC/PI staining based flow cytometry (reference value: 2.35%). It is filed as functional.
In test [11] the test system is HCT-116. Description: Induction of apoptosis in human HCT116 cells assessed as viable cells at 5 uM after 24 hrs by Annexin V-FITC/PI staining based flow cytometry (reference value: 93%). It counts as functional. The settings on record: HCT-116, 24 h, read-out: Activity.
The subject of test [12] is HCT-116. Description: Induction of apoptosis in human HCT116 cells assessed as necrotic cells at 5 uM after 24 hrs by Annexin V-FITC/PI staining based flow cytometry (reference value: 0.39%). It counts as functional.
Test [13] deals with HCT-116. As to the kind of experiment: Induction of autophagy in human HCT116 cells assessed as autophagic vacuole formation at 5 uM after 6 hrs by MDC staining based fluorescence microscopic analysis. It counts as functional, cell-based.
In test [14] the test system is HCT-116. Description: Induction of autophagy in human HCT116 cells assessed as accumulation of GFP/mRFP-tagged LC3 accumulation in cytoplasm after 12 hrs by laser scanning confocal microscopic analysis. It counts as functional, cell-based.

Molecules are shown by their SMILES. Activity calls are given as the source filed them. No cut-off for these calls is given here. Where only a bound is given, the exact number is not on record here.

Chain of Phosphatidylinositol 4,5-bisphosphate 3-kinase catalytic subunit alpha isoform (Homo sapiens, UniProt P42336, H1047R) (P42336 whole entry H1047R, canonical isoform): as the sequence (P42336 whole entry, canonical isoform) above, with H1047R counted along it

`O=C(Cc1ccc(Cl)cc1)c1cccc(O)c1O` came in with an EC50 in test [1] of over 500 µM. Besides, the IC50 in test [2] and in [3] was over 50 µM each time.

Regarding `Oc1ccc(-c2n[nH]cc2-c2ccc(Cl)c(Cl)c2)c(O)c1O`, the EC50 was 5.7 µM in [4], 10 µM in test [5] and 19.1 µM in [6].

Turning to `O=C(Cc1ccc(C(F)(F)F)cc1)c1ccc(O)c(O)c1O`, in test [1], the EC50 amounted to 58.4 µM. Also, the IC50 in test [2] and in [3] was over 50 µM each time.

As to `O=C(Cc1ccc(F)cc1)c1ccc(O)c(O)c1O`, the EC50 in test [1] stood at 170 µM. For the same molecule, the IC50 in [2] and in test [3] was over 50 µM each time.

Turning to `O=C(Cc1ccc(F)c(Cl)c1)c1ccc(O)c(O)c1O`, the EC50 in test [1] amounted to 9.7 µM. For the same molecule, the IC50 is 47.3 µM in test [2] and over 50 µM in [3].

Consider `O=C(Cc1ccc(Cl)c(Cl)c1)c1ccc(O)c(O)c1O`, for which the concentration for a half-maximal effect (EC50) in test [1] worked out at 8.9 µM. Further, the 50% inhibitory concentration (IC50) in test [2] amounted to 35.5 µM; in test [3] it was 48.9 µM.

Turning to `COc1ccc(CC(=O)c2ccc(O)c(O)c2O)cc1OC`, a half-maximal effect in [1] (EC50) was put at 242 µM. The IC50 in test [2] and in test [3] was over 50 µM in each case.

With `Cn1c(=O)n(-c2ccc(C(C)(C)C#N)cc2)c2c3cc(-c4cnc5ccccc5c4)ccc3ncc21` [DACTOLISIB], the midpoint of the response in test [7], the EC50, lay at 0.079 µM.

Turning to `O=C(Cc1ccc(Cl)cc1)c1ccc(O)c(O)c1O`, the EC50 in [1] came out at 69.3 µM; in test [8], 35.2 µM. The IC50 in [2] and in test [3] was over 50 µM in each case.

Regarding `O=C(Cc1ccc(Cl)cc1)c1c(O)cc(O)cc1O`, the results for the EC50 in test [1] and in [8] were 115 µM and 79.3 µM, respectively. Besides, the IC50 in test [2] and in test [3] was over 50 µM in each case.

As for `FC(F)c1nc2ccccc2n1-c1nc(N2CCOCC2)nc(N2CCOCC2)n1` [ZSTK-474], the IC50 was found to be 1.31 µM in [2] and 5.27 µM in test [3]. For the same molecule, the Activity in test [9] is 5.6%; in test [10] it was 1.29%; in test [12] it was 0.2%; in test [14], “Dose-dependent effect”. The viability at 5 µM in test [11] turned out to be 92%. Moreover, in test [13], the outcome was Active.

`O=C(Cc1ccccc1Cl)c1ccc(O)c(O)c1O`: the half-maximal effective concentration (EC50) in [1] is over 500 µM. Also, the concentration for half-maximal inhibition (IC50) in [2] and in [3] was over 50 µM throughout.

The molecule `O=C(Cc1cccc(Cl)c1)c1ccc(O)c(O)c1O` yielded an EC50 in [1] of 98.2 µM. In addition, the IC50 in test [2] and in test [3] was over 50 µM each time.

In turn, `O=C(Cc1ccc(Cl)cc1)c1ccc(O)cc1O` gave an EC50 in test [1] of 196 µM. Moreover, the IC50 in test [2] and in test [3] was over 50 µM throughout.

For the molecule `O=C(Cc1ccccc1F)c1ccc(O)c(O)c1O`, the EC50 in [1] was over 500 µM. For the same molecule, the half-inhibitory concentration (IC50) in test [2] and in [3] was over 50 µM throughout.
